This is an account of results in article PMC3671673, “In Vitro Morphological Assessment of Apoptosis Induced by Antiproliferative Constituents from the Rhizomes of Curcuma zedoaria” (Evidence-based Complementary and Alternative Medicine : eCAM, 2013).

Values after ≈ are worked out from the molar mass of the structure shown. Where two headings read alike, the source gives them in different places.

For data set [1], the system named is hormone-dependent breast cancer cell line (MCF-7). Description: cells. It is filed as cell-based. Conditions: Homo sapiens, MCF7, 72 h, neutral red, mean ± SD of three replicates, read-out: IC50 (μg/mL) MCF-7. The method, then:
(§1) The human cancer cells KB, Ca Ski, MCF-7, HCT-116, A549, and noncancer human cell lines (MRC-5) were purchased from the American Tissue Culture Collection (ATCC, USA). The supplemented RPMI 1640 media and eagle minimum essential medium (EMEM) were purchased from Sigma-Aldrich, USA. The supplements or antibiotics such as foetal bovine serum (FBS), penicillin/streptomycin (P/S) (100 μg/mL), amphotericin B (50 μg/mL), and accutase were purchased from PAA Laboratories, Austria. Sodium pyruvate (11 mg/mL) purchased from Sigma-Aldrich, USA. The cells were cultured in a SHEL LAB water-jacketed CO2 incubator with […] tissue culture flasks (Nunc, Denmark), which was observed routinely under inverted microscope (Leica DMI3000 B, Germany) for any contamination and seeded into 96-well flat bottom microtiter plate (Nunc, Denmark). The extract or pure compounds was dissolved in dimethyl sulfoxide (DMSO, Molecular Biology Grade, >99.9%) from Sigma-Aldrich, USA. Microtiter plate incubator shaker (LT Biomax 500) was used and absorbance was measured at 540 nm using an ELISA microplate reader (EMax microplate reader of Molecular Devices, USA). MCF-7 and Ca Ski were cultured in RPMI 1640 media supplemented with 10% v/v FBS, P/S, and amphotericin B and MRC-5 in EMEM media with 10% v/v FBS, P/S, amphotericin B, and sodium pyruvate. The cells were cultured in tissue culture flask in 5% CO2 incubator kept at 37°C in a humidified atmosphere and observed routinely under inverted microscope from any contaminations. Each fresh medium was replaced every 2 or 3 days until cell confluence was achieved and the cells were detached by using accutase.
(§2) The in vitro cytotoxicity activity was performed using the neutral red cytotoxicity assay based on the initial protocol as described earlier with some modifications. Briefly, cells were detached from the tissue culture flask with 1.0 mL solution of accutase and PBS solution. The cell pellet was obtained by centrifugation at 1,000 rpm for 5 minutes. The density of the viable cells was counted by 0.4% of trypan blue exclusion in a haemocytometer. Cells were then plated in 96-well microtiter plate (Nunc), at a concentration of 1 × 10^4 cells/well and incubated in a CO2 incubator at 37°C to allow the cells to adhere. After 24 h, the cells were treated with six different concentrations, that is, 1, 10, 25, 50, 75, and 100 μg/mL of each tested agent in three replicates. The plates were incubated for 72 h at 37°C in a 5% CO2 incubator. The untreated cells were regarded as a negative control, whilst cells incubated only with DMSO (0.5%, v/v) were used as a vehicle control. No effect due to the DMSO was observed. Doxorubicin was used as the positive control. After 72 h, the old medium was substituted with fresh medium containing 50 μg/mL neutral red. The 96-well plates were placed into incubator for 3 h. This is to allow the uptake of the vital dye into the lysosomes of viable and undamaged cells. Then, the media was discarded and cells were washed with 200 μL of neutral red washing solution. The dye was eluted from the cells by adding neutral red resorb solution (200 μL). The plate was further incubated for 30 min with rapid agitation on a microtiter plate shaker. The optical density (OD) of the eluted dye was read at 540 nm using a microplate reader. The experiments were conducted in triplicates. The percentage of inhibition of each of the test samples was calculated according to the following formula using the OD values obtained: percentage of inhibition (%) = (OD control − OD sample)/OD control × 100%. The average of three replicates was then obtained. Cytotoxicity of each test agent is expressed as IC50 value. The IC50 value is the concentration of test agents that cause 50% inhibition or cell death, averaged from the three experiments. The IC50 for each extract was extrapolated from the graphs of the percentage inhibition versus concentration of test agents.

In data set [2] the test system is cervical carcinoma cell line (Ca Ski). The experiment in a line: cells. It is filed as cell-based. The note with it: Homo sapiens, 72 h, neutral red, mean ± SD of three replicates, read-out: IC50 (μg/mL) Ca Ski. On the procedure: as §1, §2
The subject of data set [3] is nasopharyngeal carcinoma cell line (KB). The experiment in a line: Neutral red cytotoxicity assay, KB. It is filed as cell-based, human. Conditions: extracts, 72 h, mean ± SD of three replicates. The method, then:
(§3) The human cancer cells KB, Ca Ski, MCF-7, HCT-116, A549, and noncancer human cell lines (MRC-5) were purchased from the American Tissue Culture Collection (ATCC, USA). The supplemented RPMI 1640 media and eagle minimum essential medium (EMEM) were purchased from Sigma-Aldrich, USA. The supplements or antibiotics such as foetal bovine serum (FBS), penicillin/streptomycin (P/S) (100 μg/mL), amphotericin B (50 μg/mL), and accutase were purchased from PAA Laboratories, Austria. Sodium pyruvate (11 mg/mL) purchased from Sigma-Aldrich, USA. […] Microtiter plate incubator shaker (LT Biomax 500) was used and absorbance was measured at 540 nm using an ELISA microplate reader (EMax microplate reader of Molecular Devices, USA). […]
(§4) The in vitro cytotoxicity activity was performed using the neutral red cytotoxicity assay based on the initial protocol as described earlier with some modifications. […] The density of the viable cells was counted by 0.4% of trypan blue exclusion in a haemocytometer. […] The optical density (OD) of the eluted dye was read at 540 nm using a microplate reader. […] Cytotoxicity of each test agent is expressed as IC50 value. […]

The subject of data set [4] is lung carcinoma cell line (A549). Description: Neutral red cytotoxicity assay, A549. The note with it: Homo sapiens, extracts, 72 h, mean ± SD of three replicates, read-out: IC50 (μg/mL) A549. It is filed as cell-based. On the procedure:
as §3, §4

The test system of data set [5] is colon carcinoma cell line (HCT-116). The experiment in a line: Neutral red cytotoxicity assay, HCT-116. The note with it: Homo sapiens, 72 h, mean ± SD of three replicates, read-out: IC50 (μg/mL) HCT-116. It is filed as cell-based. The method, then: as §1
as §2, with “The percentage of inhibition of each of the test samples was calculated according to the following formula using the OD values obtained: percentage of inhibition (%) = (OD control − OD sample)/OD control × 100%. The average of three replicates was then obtained.” left out, “The IC50 value is the concentration of test agents that cause 50% inhibition or cell death, averaged from the three experiments. The IC50 for each extract was extrapolated from the graphs of the percentage inhibition versus concentration of test agents.” left out

Data set [6] relates to noncancer human lung fibroblast cell line (MRC-5). Description: Neutral red cytotoxicity assay, MRC-5. In kind it is cell-based. Conditions: 72 h, mean ± SD of three replicates, read-out: IC50 (μg/mL) MRC-5. On the procedure: as §1
as §2, with “The percentage of inhibition of each of the test samples was calculated according to the following formula using the OD values obtained: percentage of inhibition (%) = (OD control − OD sample)/OD control × 100%. The average of three replicates was then obtained.” left out, “The IC50 value is the concentration of test agents that cause 50% inhibition or cell death, averaged from the three experiments. The IC50 for each extract was extrapolated from the graphs of the percentage inhibition versus concentration of test agents.” left out

For data set [7], the system named is colon carcinoma cell line (HCT-116). Also on record: method as in PMID 19471192. Conditions: HCT-116, reported previously, ref [21]; cited from earlier work.
Data set [8] relates to cervical carcinoma cell line (Ca Ski). More on the design: method as in PMID 19471192. Conditions: reported previously, ref [21]; cited from earlier work.
Data set [9] has as its system hormone-dependent breast cancer cell line (MCF-7). More on the design: method as in PMID 19471192. The note with it: MCF-7, reported previously, ref [21]; cited from earlier work.

With `COc1cccc2c1C(=O)c1c(O)c3c(c(O)c1C2=O)C[C@@](O)(C(=O)CO)C[C@@H]3O[C@H]1C[C@H](N)[C@H](O)[C@H](C)O1` [Doxorubicin, reference compound], the IC50 in data set [1] (extracts) came to 0.05 ± 0.01 µg/mL (≈ 0.092 µM); in data set [2] (extracts), 0.18 ± 0.06 µg/mL (≈ 0.331 µM); in [4], 0.58 ± 0.01 µg/mL (≈ 1.07 µM); in [5] (extracts), 0.24 ± 0.04 µg/mL (≈ 0.442 µM); in data set [6] (MRC5, extracts) it was 0.4 ± 0.03 µg/mL (≈ 0.736 µM). Moreover, the “IC50 (μg/mL) KB” value in data set [3] amounted to 0.27 ± 0.01 µg/mL (≈ 0.497 µM).

Consider `C/C1=C\CC[C@H](C)C(=O)C[C@H](C(C)C)C(=O)C1` [Neocurdione (2), neocurdione], for which the IC50 was 53.5 ± 1.1 µg/mL (≈ 226 µM) in [1] (isolated compounds); 46.2 ± 1.1 µg/mL (≈ 195 µM) in [2] (isolated compounds); 64 ± 1.3 µg/mL (≈ 271 µM) in data set [5] (isolated compounds); 59 ± 0.4 µg/mL (≈ 250 µM) in [6] (MRC5, isolated compounds).

In the case of `C/C1=C\CC[C@@]2(C)O[C@@H]2C(=O)c2c(C)coc2C1` [Zederone (5), zederone], the IC50 in data set [1] (isolated compounds) is more than 100 µg/mL; in data set [2] (isolated compounds) it was more than 100 µg/mL; in data set [5] (isolated compounds) it was more than 100 µg/mL; in [6] (MRC5, isolated compounds), more than 100 µg/mL.

Regarding `CC[C@H](CC[C@@H](C)[C@H]1CC[C@H]2[C@@H]3CC=C4C[C@@H](O)CC[C@]4(C)[C@H]3CC[C@]12C)C(C)C` [β-sitosterol (8), β-sitosterol], the “cytotoxicity (in words)” value in data set [7], in [8] and in [9] was “low cytotoxicity” throughout.
